Source: ChEMBL document CHEMBL2203104, “Recent advances in antitubercular natural products” (Eur J Med Chem, 2012)
Values after ≈ are worked out from the molar mass of the structure shown.

Key:
Type in all cases: functional
[1] = system: Mycobacterium tuberculosis; test: Antimycobacterial activity against Mycobacterium tuberculosis H37Ra
[2] = system: Mycobacterium tuberculosis; test: Antimycobacterial activity against Mycobacterium tuberculosis
[3] = system: Mycobacterium tuberculosis; test: Antimycobacterial activity against Mycobacterium tuberculosis H37Rv; settings: Mycobacterium tuberculosis, H37Rv; read-out: MIC
[4] = system: Mycobacterium tuberculosis; test: Antimycobacterial activity against Mycobacterium tuberculosis H37Rv ATCC 27294
[5] = system: Mycobacterium tuberculosis; test: Antimycobacterial activity against Mycobacterium tuberculosis isolate CIBIN/UMF 15:19

## O=C1C=C[C@@H]2O[C@H](c3ccccc3)[C@@H](O)[C@@H]2O1 [ALTHOLACTONE]
[1]
  MIC: 6.25 µg/mL

## COC(=O)/C=C/c1ccc(O)c(O)c1 [METHYLCAFFEATE]
[1]
  MIC: 25 µg/mL

## COc1cc(O[C@@H]2O[C@H](CO)[C@@H](O)[C@H](O)[C@H]2O)c2c(O)c(C(C)=O)c(C)cc2c1
[2]
  MIC: 8.9 µM

## C=C1C(=O)O[C@H]2[C@H]1[C@@H](OC(=O)/C(C)=C\C)C[C@@]1(C)OC(=CC1=O)C(=C)[C@H]2O [ISOCENTRATHERIN]
[1]
  MIC: 3.1 µg/mL

## CCOC(=O)/C=C/c1ccc(OC)cc1 [4-METHOXY ETHYL CINNAMATE]
[3]
  MIC: 242 µM (≈ 49.9 µg/mL)
[1]
  MIC: 485 µM

## CCC1C=CCC[C@@]2(C[C@@H]3CC[C@@H]4[C@H](C(=O)OCCCCCCCCCCCCCCCC(=O)N(CCCN)C[C@@H](O)CCN)[C@]5(CCC[C@@H](C)O5)NC(=N2)N34)O1 (stereo partly drawn)
[4]
  MIC: 46.5 µg/mL (≈ 58 µM)

## C=C(C)CC(O)c1c(OC)cc(O)c2c(=O)cc(C)oc12 (stereo not drawn) [PERFORAMONE B]
[1]
  MIC: 25 µg/mL

## CSSc1cccc[n+]1[O-]
[4]
  MIC: 1.25 µg/mL (≈ 7.21 µM)

## COc1ccc(C/C=C/c2ccc(O)cc2)c(OC)c1O [DALPARVINENE]
[1]
  MIC: 50 µg/mL

## CC(=O)c1c(C)cc2cccc(O[C@@H]3O[C@H](CO)[C@@H](O)[C@H](O)[C@H]3O)c2c1O
[2]
  MIC: 26.6 µM

## CCCOC(=O)[C@]12CC[C@@]3(C)C[C@H]4O[C@@]4(C)[C@H]4O[C@H]4[C@H]3[C@@H]1CC[C@@H]2C(C)C
[4]
  MIC: 6.25 µg/mL (≈ 16.6 µM)
[5]
  MIC: 6.25 µg/mL (≈ 16.6 µM)

## CSCCC(NC(=O)NC(Cc1c[nH]c2ccccc12)C(=O)O)C(=O)NC(C(=O)N/C=C1\C[C@@H](O)[C@H](n2ccc(=O)[nH]c2=O)O1)C(C)N(C)C(=O)C(N)Cc1cccc(O)c1 (stereo partly drawn) [SANSANMYCIN A]
[4]
  MIC: 16 µg/mL (≈ 18.5 µM)

## COc1ccc([C@@]23Oc4cc(OC)cc(OC)c4[C@@](O)(C2O)[C@@H](C(=O)NCCCCNC(=O)c2ccccc2)[C@@H]3c2ccccc2)cc1 (stereo partly drawn)
[1]
  MIC: 25 µg/mL

## CC(C)CNC(=O)/C=C/C=C/CCCCCCCC/C=C/c1ccc2c(c1)OCO2 [BRACHYSTAMIDE B]
[1]
  MIC: 50 µg/mL

## C=C(C)C(=O)O[C@H]1C[C@@]2(C)OC(=CC2=O)C(=C)[C@H](O)[C@H]2OC(=O)C(=C)[C@@H]21
[1]
  MIC: 3.1 µg/mL

## C/C=C/C(=O)OC[C@H]1O[C@@H](Oc2cccc3cc(C)c(C(C)=O)c(O)c23)[C@H](O)[C@@H](O)[C@@H]1O [RUMEXNEPOSIDE A]
[2]
  MIC: 20.7 µM

## COc1c(O)cc2oc3cc(O)c(CC=C(C)C)c(O)c3c(=O)c2c1CC=C(C)C [MANGOSTIN]
[2]
  MIC: 15.2 µg/mL

## O=C1c2ccccc2-c2c3c(cc4ccnc1c24)OCO3 [LIRIODENINE]
[2]
  MIC: 12.5 µg/mL

## CC[C@H](C)[C@H]1C(=O)N[C@@H](Cc2ccc(OCC=C(C)C)cc2)C(=O)N(C)[C@@H](C)C(=O)O[C@H](Cc2ccccc2)C(=O)N2CCC[C@H]2C(=O)N[C@@H](CO)C(=O)N1C [PULLULARIN A]
[1]
  MIC: 25 µg/mL

## COc1cc2oc(C)cc(=O)c2c(O)c1CC=C(C)C
[1]
  MIC: 50 µg/mL

## NC(=O)c1cnccn1 [PYRAZINAMIDE]
[3]
  MIC: 810 µM (≈ 99.7 µg/mL)
[1]
  MIC: 810 µM

## C/C=C(\C)C(=O)C1=C2C3=COC(/C=C/[C@@H](C)CC)=CC3=C(Cl)C(=O)[C@@]2(C)OC1=O [CHAETOVIRIDIN E]
[1]
  MIC: 50 µg/mL

## CO[C@H]1CC(=O)c2c(O)cccc2[C@H]1O
[1]
  MIC: 12.5 µg/mL

## O=C(/C=C/C=C/CC/C=C/c1ccc2c(c1)OCO2)N1CCCC1
[1]
  MIC: 25 µg/mL

## CCc1c(OC)cc2c(c1O)C(=O)C=C(OC)C2=O
[1]
  MIC: 12.5 µg/mL

## COc1c(-c2ccccc2)oc2c3c(ccc2c1=O)OC(C)(C)C=C3 [KARANJACHROMENE]
[1]
  MIC: 12.5 µg/mL

## CC(C)(O)c1ccc2c(c1)CC[C@H]1[C@](C)(C(=O)O)CCC[C@]21C
[2]
  MIC: 50 µg/mL

## CC(C)C(O)C(=O)N/C=C\C=C/NC(=O)C(O)C(C)C (stereo not drawn) [PHOMOENAMIDE]
[2]
  MIC: 6.25 µg/mL

## O=Cc1cc2c(cc1O)[nH]c1cc(O)ccc12 [CLAUSINE O]
[1]
  MIC: 25 µg/mL

## C=C1C(=O)O[C@H]2[C@H]1[C@@H](OC(=O)/C(C)=C\C)C[C@@]1(C)OC(=CC1=O)C(=C)[C@@H]2O
[1]
  MIC: 3.1 µg/mL

## CCCCCCCCCCCC(=O)c1c(O)cc(O)cc1O [DODECANOYLPHLOROGLUCINOL]
[1]
  MIC: 50 µg/mL

## O=C(CCCCCCCCc1ccccc1)c1c(O)cccc1O [MALABARICONE A]
[1]
  MIC: 25 µg/mL

## O=C(CCCCCCCCCCCC[C@H]1C=CCC1)OCC(O)CO (stereo partly drawn) [ANTHELMINTHICINS C]
[3]
  MIC: 4.38 µM (≈ 1.55 µg/mL)
[2]
  MIC: 11.3 µM

## C/C(=C\CO)CCCC(C)CCCC(C)CCCC(C)C (stereo not drawn)
[4]
  MIC: 1.56 µg/mL (≈ 5.26 µM)
